# Source: patent US6787535B2, “Indole derivatives with 5HT6 receptor affinity” (Syntex (U.S.A.) LLC, priority 2001, dated 2004)
row,Structure (SMILES),melting point [°C]
1,"CN1CCN(c2cccc3c(S(=O)(=O)c4ccccc4C(F)(F)F)c[nH]c23)CC1 [compound 508, 7-(4-methyl-piperazin-1-yl)-3-(2-trifluoromethyl-benzenesulfonyl)-1H-indole]",237.1 to 241.5
2,"CN1CCC(c2cccc3c(S(=O)(=O)c4ccc(F)cc4)c[nH]c23)CC1 [compound 510, 3-(4-fluoro-benzenesulfonyl)-7-(1-methyl-piperidin-4-yl)-1H-indole]",178 to 182
3,"O=S(=O)(c1ccccc1)c1c[nH]c2c(N3CCN(CC4CC4)CC3)cccc12 [compound 511, 3-benzenesulfonyl-7-(4-cyclopropylmethyl-piperazin-1-yl)-1H-indole]",280 to 282
4,"CCCN1CCN(c2cccc3c(S(=O)(=O)c4ccccc4)c[nH]c23)CC1 [compound 512, 3-benzenesulfonyl-7-(4-propyl-piperazin-1-yl)-1H-indole]",290 to 295
5,"CCN1CCN(c2cccc3c(S(=O)(=O)c4ccccc4)c[nH]c23)CC1 [compound 513, 3-benzenesulfonyl-7-(4-ethyl-piperazin-1-yl)-1H-indole]",274 to 275

# The next lines start with the values.
row,melting point [°C],Structure (SMILES)
1,188 to 190,"Cc1[nH]c2c(N3CCNCC3)cccc2c1S(=O)(=O)c1ccccc1 [compound 601, 3-benzenesulfonyl-2-methyl-7-piperazin-1-yl-1H-indole]"
2,118 to 120,"Cc1[nH]c2c(N3CCNCC3)cccc2c1S(=O)(=O)c1ccc(Cl)cc1 [compound 602, 3-(4-chlorobenzenesulfonyl)-2-methyl-7-piperazin-1-yl-1H-indole]"
3,232 to 236,"Cc1[nH]c2c(N3CCNCC3)cccc2c1S(=O)(=O)c1ccc(F)cc1 [compound 603, 3-(4-fluorobenzenesulfonyl)-2-methyl-7-piperazin-1-yl-1H-indole]"
4,182 to 184,"COc1ccc(S(=O)(=O)c2c(C)[nH]c3c(N4CCNCC4)cccc23)cc1 [compound 604, 3-(4-methoxybenzenesulfonyl)-2-methyl-7-piperazin-1-yl-1H-indole]"
